Measured values reported in PMC8158245, “Novel chalcone/aryl carboximidamide hybrids as potent anti-inflammatory via inhibition of prostaglandin E2 and inducible NO synthase activities: design, synthesis, molecular docking studies and ADMET prediction” (Journal of Enzyme Inhibition and Medicinal Chemistry, 2021).
“And” between values parts separate entries of the source, which are not always exact repeats. Equal values may be shown once.

Tests used:
[1] = system: carrageenan-induced paw edoema; experiment: Carrageenan-induced rat paw edoema; type: in vivo, Wistar albino rats; conditions: rat, 50 mg/kg oral; for % of edoema inhibition (% mean ± SEM), 1 h: 1 h after carrageenan; for % of edoema inhibition (% mean ± SEM), 2 h: 2 h after carrageenan; for % of edoema inhibition (% mean ± SEM), 3 h: 3 h after carrageenan; for % of edoema inhibition (% mean ± SEM), 4 h: 4 h after carrageenan
Protocol: The anti-inflammatory activity of the inspiring active compounds in vitro (4c, 4d, 6a, 6c, 6d and 6e) were further estimated in vivo using the carrageenan-induced paw edoema test. […] The paw thickness was assessed using Vernier calliper after carrageenan injection for 1,2, 3 and 4 h. Wistar albino rats (males weighing 120–140 g, six rats per group) were grouped as follows: Group 1 (Control) rats were received the vehicle. […] The percentage inhibition of edoema thickness was calculated at each time interval in comparison to the control group.

[2] = system: LPS-induced NO production in RAW 264.7 cells; experiment: Griess assay for NO release from LPS-stimulated RAW 264.7 cells; type: cell-based; conditions: Mus musculus, RAW264.7; for inhibition at 5 µM: compounds at 5 µM, 2 h before LPS, RAW 264.7 cells, read-out: NO Inhibition rates (%) ± SD; for IC50: LPS-induced RAW 264.7 cells
Protocol: Equal volumes of Griess reagent and the supernatant, obtained from treated RAW264.7 cells with the compounds 2 h before LPS induction, were mixed for 10 min at room temperature in the dark. The absorbance was measured at 540 nm using ELISA plate reader and the nitrite concentration was calculated from sodium nitrite standard curve. The percentage inhibition (%) is calculated as absorbance at 540 nm of (LPS-compounds)/absorbance at 540 nm of (LPS-control) ×100[47]^,[48].

[3] = MTT cytotoxicity assay on RAW 264.7 cells; type: cell-based; conditions: mouse; for IC50 at 20 h: with LPS; for IC50: without LPS
Protocol: MTT assay was used to assess the cell viability of RAW 264.7 cells cultured in RPMI-1640 complete media. […] Afterwards, 5 µl of MTT solution were added and incubated for further 4 h. Finally, 150 ul of dimethyl sulfoxide (DMSO) were added and the optical density was assessed at 570 nm using an ELISA plate reader.

iNOS = target: T1, iNOS (Mus musculus, UniProt P29477); experiment: iNOS enzymatic activity in LPS-induced RAW 264.7 cells; type: cell-based
T1 construct: endogenous in cells; host or cells: RAW 264.7 cells induced with LPS
T1 sequence (P29477 1-1144): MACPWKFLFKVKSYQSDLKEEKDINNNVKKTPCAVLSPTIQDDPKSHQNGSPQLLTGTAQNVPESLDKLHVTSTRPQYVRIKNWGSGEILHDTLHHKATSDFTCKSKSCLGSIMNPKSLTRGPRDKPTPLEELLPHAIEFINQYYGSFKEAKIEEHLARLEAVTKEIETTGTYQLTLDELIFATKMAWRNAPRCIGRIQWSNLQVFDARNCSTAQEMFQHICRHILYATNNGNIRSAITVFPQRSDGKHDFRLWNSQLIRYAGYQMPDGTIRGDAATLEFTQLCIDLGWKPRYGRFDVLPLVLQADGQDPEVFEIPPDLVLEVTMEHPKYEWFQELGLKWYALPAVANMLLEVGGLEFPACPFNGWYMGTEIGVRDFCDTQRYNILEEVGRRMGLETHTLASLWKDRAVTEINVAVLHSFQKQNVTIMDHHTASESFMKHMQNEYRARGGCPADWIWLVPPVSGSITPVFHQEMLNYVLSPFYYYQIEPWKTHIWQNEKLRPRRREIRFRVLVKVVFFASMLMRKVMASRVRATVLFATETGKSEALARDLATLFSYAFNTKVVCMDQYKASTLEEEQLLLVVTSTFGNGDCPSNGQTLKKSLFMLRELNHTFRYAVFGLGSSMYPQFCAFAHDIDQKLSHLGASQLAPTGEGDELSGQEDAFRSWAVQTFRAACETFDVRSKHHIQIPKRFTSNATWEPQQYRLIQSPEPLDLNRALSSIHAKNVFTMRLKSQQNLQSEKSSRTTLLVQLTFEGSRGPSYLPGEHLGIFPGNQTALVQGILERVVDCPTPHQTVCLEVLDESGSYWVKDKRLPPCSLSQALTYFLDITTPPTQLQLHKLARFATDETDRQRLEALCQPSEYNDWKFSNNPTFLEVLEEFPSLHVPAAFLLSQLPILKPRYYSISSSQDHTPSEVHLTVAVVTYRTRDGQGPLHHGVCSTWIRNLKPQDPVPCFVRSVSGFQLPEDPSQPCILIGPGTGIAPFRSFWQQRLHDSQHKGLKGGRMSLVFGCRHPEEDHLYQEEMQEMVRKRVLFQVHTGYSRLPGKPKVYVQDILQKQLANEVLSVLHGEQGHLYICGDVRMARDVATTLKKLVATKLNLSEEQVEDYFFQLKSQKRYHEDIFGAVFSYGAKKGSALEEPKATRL
Protocol: Then, the NOS assay reaction solution (100 µl/well) was added and incubated for an extra 2 h at 37 °C. The fluorescence with excitation wavelength at 485 nm and emission wavelength at 528 nm was measured using a fluorescent microplate reader.

[4] = system: PGE2 production in RAW 264.7 cells; experiment: PGE2 concentration by ELISA in LPS-treated RAW 264.7 cells; type: cell-based; conditions: Mus musculus, RAW264.7; LPS-induced RAW 264.7 cells
Protocol: After seeding and incubation of RAW 264.7 cells for 24 h, then the cells were treated with the compounds (4c, 4d, 6a, 6c, 6d and 6e) at different concentrations and with LPS (1 µg/ml) for another 24 h. The concentration of prostaglandin E2 (PGE2) was measured in the culture media using ELISA kit (R&D Systems, Minneapolis, MN)[50].

bovine COX-1 = target: T2, bovine COX-1 (Ovis aries, UniProt P05979); experiment: In vitro COX-1 inhibition assay (Cayman kit); type: biochemical
T2 construct: purchased Cayman Chemical 560101
T2 sequence (P05979 25-600): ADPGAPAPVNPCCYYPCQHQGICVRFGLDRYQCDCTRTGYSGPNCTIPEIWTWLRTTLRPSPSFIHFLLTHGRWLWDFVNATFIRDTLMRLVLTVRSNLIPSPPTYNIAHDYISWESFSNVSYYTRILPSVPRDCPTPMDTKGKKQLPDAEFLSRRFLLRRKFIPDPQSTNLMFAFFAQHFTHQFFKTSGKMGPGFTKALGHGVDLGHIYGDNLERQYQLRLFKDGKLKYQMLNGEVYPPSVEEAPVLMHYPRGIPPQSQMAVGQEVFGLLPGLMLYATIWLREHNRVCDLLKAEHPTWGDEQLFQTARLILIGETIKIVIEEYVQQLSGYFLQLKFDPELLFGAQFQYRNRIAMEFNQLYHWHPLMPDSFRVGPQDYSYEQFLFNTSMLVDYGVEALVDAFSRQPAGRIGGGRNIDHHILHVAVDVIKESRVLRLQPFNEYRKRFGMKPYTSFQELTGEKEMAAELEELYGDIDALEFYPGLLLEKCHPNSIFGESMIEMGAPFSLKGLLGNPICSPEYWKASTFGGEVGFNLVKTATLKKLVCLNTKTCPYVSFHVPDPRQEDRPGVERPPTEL

COX-2 = experiment: In vitro COX-2 inhibition assay (Cayman kit); type: biochemical, bovine; conditions: selectivity index from COX 1 and COX 2 IC50
[5] = listed as indomethacin, 50 mg/kg

SMILES	% of edoema inhibition (% mean ± SEM), 1 h [1]	% of edoema inhibition (% mean ± SEM), 2 h [1]	% of edoema inhibition (% mean ± SEM), 3 h ([1]; 50 mg/kg)	% of edoema inhibition (% mean ± SEM), 4 h ([1]; 50 mg/kg)	inhibition at 5 µM [2]	melting point	IC50 at 20 h [3]	IC50 [3]	IC50 [2]	IC50 (iNOS)	IC50 [4]	other results
Cc1ccc(-c2cc(C(F)(F)F)nn2-c2ccc(S(N)(=O)=O)cc2)cc1 [Celecoxib, reference compound]	10.61 ± 2.59%	25.43 ± 3.29%	46.42 ± 2.87%	12.32 ± 2.42%	–	–	–	–	–	–	–	% of edoema inhibition (% mean ± SEM), 3 h [1]: 46.42%; % of edoema inhibition (% mean ± SEM), 4 h ([1]; listed as celecoxib, 50 mg/kg): 12.32%
COc1ccc(/C=C/C(=O)c2ccc(OCC(=O)O/N=C(\N)c3ccccc3)cc2)cc1 [Compound 4a, N’-(2-{4-[(2E)-3-(4-Methoxyphenyl)prop-2-enoyl]phenoxy}acetoxy) benzenecarboximidamide]	–	–	–	–	41.9 ± 1.4%	164 to 166 °C	–	–	–	–	–	–
COc1ccc(/C=C/C(=O)c2ccc(OCC(=O)ON=C(N)c3ccc(Cl)cc3)cc2)cc1 [Compound 4b, N’-(2-{4-[(2E)-3-(4-Methoxyphenyl)prop-2-enoyl]phenoxy}acetoxy)-4-chlorobenzenecarboximidamide]	–	–	–	–	47.6 ± 3.6%	180 to 182 °C	–	–	–	–	–	–
COc1ccc(/C=C/C(=O)c2ccc(OCC(=O)ON=C(N)c3ccc(OC)cc3)cc2)cc1 [Compound 4c, N’-(2-{4-[(2E)-3-(4-Methoxyphenyl)prop-2-enoyl]phenoxy}acetoxy)-4-methoxybenzenecarboximidamide]	11.21 ± 2.41%	33.62 ± 2.69%	57.71% and 57.71 ± 2.21%	69.86% and 69.86 ± 3.51%	62.3 ± 1.9%	–	> 80 µM	> 80 µM	8.61 µM	3.62 µM	0.0323 µM	IC50 (bovine COX-1): 19.9 ± 1.03 µM; SI (COX-2): 6.06
COc1ccc(/C=C/C(=O)c2ccc(OCC(=O)ON=C(N)c3ccc(OC)c(OC)c3)cc2)cc1 [Compound 4d, N’-(2-{4-[(2E)-3-(4-Methoxyphenyl)prop-2-enoyl]phenoxy}acetoxy)-3,4-dimethoxybenzenecarboximidamide]	11.65 ± 2.26%	34.78 ± 3.34%	69.5% and 69.50 ± 1.49%	–	73.5 ± 2.1%	–	> 80 µM	> 80 µM	5.73 µM	2.22 µM	0.0247 µM	IC50 (bovine COX-1): 5.82 ± 0.3 µM; SI (COX-2): 0.25; % of edoema inhibition (% mean ± SEM), 4 h [1]: 54.21 ± 3.47%
COc1ccc(/C=C/C(=O)c2ccc(OCC(=O)ON=C(N)c3ccc([N+](=O)[O-])cc3)cc2)cc1 [Compound 4e, N’-(2-{4-[(2E)-3-(4-Methoxyphenyl)prop-2-enoyl]phenoxy}acetoxy)-4-nitrobenzenecarboximidamide]	–	–	–	–	44.1 ± 2.8%	184 to 186 °C	–	–	–	–	–	% of edoema inhibition (% mean ± SEM), 3 h [1]: 39.26%
COc1ccc(/C=C/C(=O)c2ccc(OCC(=O)O/N=C(\N)c3ccc4ccccc4c3)cc2)cc1 [Compound 4f, N’-(2-{4-[(2E)-3-(4-Methoxyphenyl)prop-2-enoyl]phenoxy}acetoxy) naphthalene-2-carboximidamide]	–	–	–	–	31.2 ± 2.2%	176 to 178 °C	–	–	–	–	–	–
COc1ccc(C(=O)/C=C/c2ccc(OCC(=O)ON=C(N)c3ccc(Cl)cc3)cc2)cc1 [Compound 6b, N’-(2-{4-[(1E)-3-(4-Methoxyphenyl)-3-oxoprop-1-en-1-yl]phenoxy}acetoxy) -4-chlorobenzenecarboximidamide]	–	–	–	–	49.6 ± 2.3%	192 to 193 °C	–	–	–	–	–	–
COc1ccc(C(=O)/C=C/c2ccc(OCC(=O)ON=C(N)c3ccc(OC)cc3)cc2)cc1 [Compound 6c, N’-(2-{4-[(1E)-3-(4-Methoxyphenyl)-3-oxoprop-1-en-1-yl]phenoxy}acetoxy)-4-methoxybenzenecarboximidamide]	11.42 ± 1.75%	28.44 ± 2.75%	54.36% and 54.36 ± 2.34%	62.21% and 62.21 ± 3.46%	67.1 ± 2.4%	–	> 80 µM	> 80 µM	5.92 µM	2.45 µM	0.0275 µM	IC50 (bovine COX-1): 64.4 ± 3.35 µM; SI (COX-2): 7.79
COc1ccc(C(=O)/C=C/c2ccc(OCC(=O)O/N=C(\N)c3ccc4ccccc4c3)cc2)cc1 [Compound 6f]	–	–	–	–	29.4 ± 2.5%	178 to 179 °C	–	–	–	–	–	–
COc1ccc2c(c1)c(CC(=O)O)c(C)n2C(=O)c1ccc(Cl)cc1 [Indomethacin, reference compound]	28.03 ± 1.35%	45.27 ± 2.48%	63.71 ± 3.48%	56.27 ± 2.14%	25.5%	–	> 80 µM	> 80 µM	45.7 µM	24.6 µM	0.0766 µM	% of edoema inhibition (% mean ± SEM), 3 h [1, 5]: 63.71%; % of edoema inhibition (% mean ± SEM), 4 h [1, 5]: 56.27%
